Test results as given in PubChem BioAssay AID1996.
≈ marks a conversion by molar mass, not a printed value.

Settings: buffer; pH 7.4; 200.0 µM
With Cc1ccc(F)c(N=Cc2c(O)c3ccccc3oc2=O)c1 the solubility kinetic was 1.8 µg/mL (≈ 6.05 µM).
With COc1cccc(C(=O)N2CCOCC2)c1OC the solubility kinetic was greater than 37.7 µg/mL.
For O=C(CN1C(=O)NC2(CCCC2)C1=O)Nc1nc(-c2ccccc2)cs1, the solubility kinetic was 1.7 µg/mL (≈ 4.59 µM).
For Cc1ccc(N2CCCC2=O)cc1S(=O)(=O)N1CCOCC1, the solubility kinetic was greater than 48.7 µg/mL.
With Cc1nc2ccc(NC(=S)NCc3ccccc3)cc2nc1C the solubility kinetic was greater than 48.4 µg/mL.
O=C(COC(=O)c1cncc(Br)c1)NCc1cccs1 showed a solubility kinetic of 40.6 µg/mL (≈ 114 µM).
Cc1ccccc1OCc1nc(C#N)c(N2CCCC2)o1 showed a solubility kinetic of 10.9 µg/mL (≈ 38.5 µM).
O=C1Nc2cc(Br)ccc2C1(O)c1ccccc1O (stereo unspecified) gave a solubility kinetic greater than 48 µg/mL.
In the case of CC(CC(=O)NCc1ccc(F)cc1)c1ccccc1 (stereo unspecified), the solubility kinetic is reported as greater than 40.7 µg/mL.
COc1ccc(CSCC(=O)Nc2ccccc2)cc1[N+](=O)[O-] gave a solubility kinetic greater than 49.9 µg/mL.
Compound Cc1ccc(S(=O)(=O)N2CCCCC2)cc1NS(=O)(=O)c1ccccc1F has a solubility kinetic greater than 61.9 µg/mL.
Work on COc1ccc(/C=C/C(=O)O)cc1S(=O)(=O)NCc1ccccc1 yielded a solubility kinetic of 49.6 µg/mL (≈ 143 µM).
For CCN1c2ccccc2S(=O)(=O)c2ccccc21, the solubility kinetic was 15.6 µg/mL (≈ 60.2 µM).
CCOC(=O)C1CCCN(S(=O)(=O)Cc2ccc(Cl)cc2)C1 (stereo unspecified) showed a solubility kinetic of 51 µg/mL (≈ 147 µM).
CC(=O)Nc1nc(C)c(-c2nc3ccc([N+](=O)[O-])cc3[nH]2)s1 showed a solubility kinetic of 1.2 µg/mL (≈ 3.78 µM).
With COc1ccc(C(=O)n2cnc3ccccc32)cc1Br the solubility kinetic was 46.7 µg/mL (≈ 141 µM).
Compound NC(=O)COc1ccc2cc(-c3ccccc3)c(=O)oc2c1 has a solubility kinetic of 3.8 µg/mL (≈ 12.9 µM).
Work on N#Cc1ccccc1OCC(=O)OCC(=O)NC1CCCCC1 yielded a solubility kinetic greater than 47.5 µg/mL.
Cc1ccc(OCC(=O)NCC2CCCO2)c(C)c1 (stereo unspecified) gave a solubility kinetic greater than 39.5 µg/mL.
Compound CCC1CN(C(=O)NCc2ccc(F)cc2)c2cc(Cl)ccc2O1 (stereo unspecified) has a solubility kinetic of 1.3 µg/mL (≈ 3.73 µM).
In the case of Cc1cccc(C(=O)N[C@H](C(=O)Nc2ccc(C)c(S(=O)(=O)N3CCOCC3)c2)C(C)C)c1, the solubility kinetic is reported as 5.4 µg/mL (≈ 11.4 µM).
Work on NCCCN1CCN(c2ccccc2)CC1 yielded a solubility kinetic of 26.3 µg/mL (≈ 120 µM).
O=C(COC(=O)CCSc1ccccc1)NCc1ccccc1 showed a solubility kinetic greater than 49.4 µg/mL.
Work on COc1ccc(Cl)cc1NC(=O)COC(=O)c1cc(C)oc1C yielded a solubility kinetic of 4.2 µg/mL (≈ 12.4 µM).
Compound CCOC(=O)c1sc(=NC(=O)c2ccc(F)cc2)n(C)c1C has a solubility kinetic of 1.4 µg/mL (≈ 4.34 µM).
CC(C)C(NC(=O)c1ccco1)C(=O)NC1CCCCCC1 (stereo unspecified) gave a solubility kinetic of 37.8 µg/mL (≈ 123 µM).
Cc1cc(C)cc(C(N)=Nc2cccc(C#N)c2)c1 showed a solubility kinetic greater than 37.4 µg/mL.
Work on COc1ccc(CCC(=O)Nc2ncc(C)s2)cc1OC yielded a solubility kinetic of 1.8 µg/mL (≈ 5.87 µM).
Work on Cl.Nc1ncnc2nc[nH]c12 yielded a solubility kinetic greater than 25.7 µg/mL.
For Cc1nc([N+](=O)[O-])c(SCC(N)=O)n1Cc1ccccc1, the solubility kinetic was greater than 46 µg/mL.
CC1(C)C(CC2OCC(CN3CCCCC3)O2)[C@H]2CC[C@@H]1C2 (stereo partly specified) showed a solubility kinetic of 25.9 µg/mL (≈ 84.2 µM).
CC(NC(=O)NC(=O)c1cccc([N+](=O)[O-])c1)C1CC1 (stereo unspecified) showed a solubility kinetic of 3.8 µg/mL (≈ 13.7 µM).
With CN(CCO)c1nc(N)c(C#N)c(CC#N)c1C#N the solubility kinetic was greater than 38.4 µg/mL.
For CSc1ncc(C(=O)Nc2cccc(C)c2C)c(C)n1, the solubility kinetic was 17 µg/mL (≈ 59.2 µM).
Work on O=C(NCCC(=O)N1CCCC1)c1ccccc1Cl yielded a solubility kinetic greater than 42.1 µg/mL.
Compound Nc1nc2ccccc2cc1S(=O)(=O)c1ccccc1 has a solubility kinetic of 1.1 µg/mL (≈ 3.87 µM).
Cc1ccc(NC(=O)c2ccc(S(=O)(=O)N3CCOCC3)cc2)cc1 showed a solubility kinetic of 3.6 µg/mL (≈ 9.99 µM).
With Cc1ccc(C(=O)C2=C(O)C(=O)N(Cc3ccco3)C2c2ccc(N(C)C)cc2)o1 (stereo unspecified) the solubility kinetic was greater than 61 µg/mL.
With O=[N+]([O-])c1ccc(Cl)c(S(=O)(=O)n2ccnc2)c1 the solubility kinetic was greater than 43.2 µg/mL.
O=C1NC(=S)N(c2ccccc2)C(=O)/C1=C/c1ccco1 showed a solubility kinetic of 43 µg/mL (≈ 144 µM).
With O=C(Cc1cccc(C(F)(F)F)c1)N1CCCC1 the solubility kinetic was greater than 38.6 µg/mL.
For CC(Sc1ncccn1)C(=O)Nc1ccc2c(c1)OCO2 (stereo unspecified), the solubility kinetic was 45 µg/mL (≈ 148 µM).
Work on Cc1ccc(N2CC(C(=O)NC3CCC(C)CC3)CC2=O)cc1 (stereo unspecified) yielded a solubility kinetic of 2.5 µg/mL (≈ 7.95 µM).
With NC(=O)c1ccccc1NC(=O)CCn1c(=S)oc2ccccc21 the solubility kinetic was 43.2 µg/mL (≈ 127 µM).
Compound COc1ccc(CC(=O)N2CCC(c3ccccc3)C2)cc1 (stereo unspecified) has a solubility kinetic of 40.8 µg/mL (≈ 138 µM).
Work on CCc1nc2ccc(C(=O)N3CCN(CC)CC3)cc2nc1CC yielded a solubility kinetic of 48.6 µg/mL (≈ 149 µM).
For Cc1ccc(Nc2nnc(C)c3ccccc23)c(C)c1, the solubility kinetic was greater than 39.5 µg/mL.
Work on O=C1C(Cc2ccccc2O)NC(=S)N1c1ccccc1 (stereo unspecified) yielded a solubility kinetic of 44.6 µg/mL (≈ 149 µM).
CCOc1cc(CN2CCCCCC2)ccc1OC showed a solubility kinetic of 27.4 µg/mL (≈ 104 µM).
In the case of Cc1ccccc1NC(=S)NC(=O)Cc1ccc(Cl)cc1, the solubility kinetic is reported as 0.5 µg/mL (≈ 1.57 µM).
Work on Nc1nc(NCC(=O)O)nc(NC2CCCCC2)c1[N+](=O)[O-] yielded a solubility kinetic greater than 46.5 µg/mL.
For Cc1csc(NC(=O)c2ccc(S(=O)(=O)N3CCN(C)CC3)cc2)n1, the solubility kinetic was 54.5 µg/mL (≈ 143 µM).
In the case of CC(=O)C1=C(O)C(=O)N(c2ccc(O)cc2)C1c1ccc(F)cc1 (stereo unspecified), the solubility kinetic is reported as greater than 49.1 µg/mL.
Work on CC(C)[C@H](NC(=O)c1ccccc1Cl)C(=O)Nc1ccc(S(=O)(=O)Nc2nccs2)cc1 yielded a solubility kinetic of 14.6 µg/mL (≈ 29.6 µM).
Cc1cc(C)c(N=C2SCC(=O)N2Cc2ccco2)c(C)c1 showed a solubility kinetic of 11.5 µg/mL (≈ 36.6 µM).
For O=C(O)C(=O)O.c1cncc(CNCCc2ccc3c(c2)OCO3)c1, the solubility kinetic was greater than 52 µg/mL.
For CCCCCCCn1c(=O)c(C(=O)OC)c(N)c2ccccc21, the solubility kinetic was less than 0.3 µg/mL.
In the case of COc1ccc2[nH]cc(S(=O)(=O)c3ccc(C)cc3)c2c1, the solubility kinetic is reported as 30.2 µg/mL (≈ 100 µM).
CC(C)N(C(C)C)S(=O)(=O)c1ccc(Cl)nc1 showed a solubility kinetic of 32.4 µg/mL (≈ 117 µM).
With CCOC(=O)N1CCC(NS(=O)(=O)c2ccc(C)cc2)CC1 the solubility kinetic was greater than 49 µg/mL.
Cn1c(SCC(=O)NC2CCCC2)nnc1-c1ccccn1 gave a solubility kinetic greater than 47.6 µg/mL.
CC(=O)NC(=S)Nc1cc(C(=O)O)ccc1Cl gave a solubility kinetic greater than 40.9 µg/mL.
With CCOc1ccccc1N=CC1=C(O)CC(c2ccccc2)CC1=O (stereo unspecified) the solubility kinetic was 3.4 µg/mL (≈ 10.1 µM).
Cc1cc(=O)[nH]c(SCC(=O)NC2CCCCCCC2)n1 showed a solubility kinetic greater than 46.4 µg/mL.
With CC(C(N)=O)N1C(=O)NC2(CCCc3ccccc32)C1=O (stereo unspecified) the solubility kinetic was greater than 43.1 µg/mL.
With CCOc1ncccc1C(=O)Nc1ccc2nc(C)sc2c1 the solubility kinetic was 4.2 µg/mL (≈ 13.4 µM).
O=C(CSc1ccccn1)Nc1cccc([N+](=O)[O-])c1 gave a solubility kinetic of 38 µg/mL (≈ 131 µM).
With CC(=O)N1CCC(N(C(=O)Nc2ccc(Cl)cc2)C(C)C)CC1 the solubility kinetic was greater than 50.7 µg/mL.
Compound CC(=O)c1ccc(N=C2NC(=O)C(CO)(CO)S2)cc1 has a solubility kinetic of 43.2 µg/mL (≈ 147 µM).
Compound Cc1ccc(C(=O)OCC(=O)NCc2cccs2)s1 has a solubility kinetic greater than 44.3 µg/mL.
O=C(COC(=O)COc1ccccc1)Nc1ccc(Br)cc1Br showed a solubility kinetic of 2.2 µg/mL (≈ 4.97 µM).
Compound CCOc1ccc(S(=O)(=O)NC2CCCC2)cc1 has a solubility kinetic of 18.3 µg/mL (≈ 67.9 µM).
Compound FC(F)(F)c1ccc(NC2=NCCCS2)cc1 has a solubility kinetic of 15.6 µg/mL (≈ 59.9 µM).
For O=c1c2cccnc2nc2n1CCCCC2, the solubility kinetic was greater than 32.3 µg/mL.
With Cc1ccccc1OCC(=O)OCC(=O)Nc1ccc(Cl)cn1 the solubility kinetic was 47.2 µg/mL (≈ 141 µM).
Cc1ccc(C(=O)Nc2ccncc2)cc1[N+](=O)[O-] gave a solubility kinetic greater than 38.6 µg/mL.
Work on O=C(NC(N1CCOCC1)C(Cl)(Cl)Cl)c1ccc(F)cc1 (stereo unspecified) yielded a solubility kinetic of 41.1 µg/mL (≈ 116 µM).
Compound CCNS(=O)(=O)c1ccc(CCC(=O)NCc2ccncc2)cc1 has a solubility kinetic greater than 52.1 µg/mL.
For Cc1cccc(C)c1NC(=O)COC(=O)C1C2CC3OC(=O)C1C3C2 (stereo unspecified), the solubility kinetic was greater than 51.5 µg/mL.
With CCOC(=O)Cc1csc(NC(=O)CCSc2ccccc2)n1 the solubility kinetic was 38.5 µg/mL (≈ 110 µM).
Cc1ccc(OCCn2ccnc2)c([N+](=O)[O-])c1 showed a solubility kinetic of 26.8 µg/mL (≈ 108 µM).
Compound Cc1ccc(CN2CCC(NC(=O)c3ccccc3)CC2)cc1 has a solubility kinetic greater than 46.3 µg/mL.
Work on COC(=O)CS(=O)(=O)c1cc([N+](=O)[O-])ccc1NC(=O)OC yielded a solubility kinetic of 38.7 µg/mL (≈ 116 µM).
Work on CCOc1ccccc1Nc1ccc2nonc2c1[N+](=O)[O-] yielded a solubility kinetic of less than 0.2 µg/mL.
O=C(CCC(=O)Nc1cccc([N+](=O)[O-])c1)NCc1ccccc1 gave a solubility kinetic of 48.5 µg/mL (≈ 148 µM).
With Cc1cc(C)c2nc(Cl)c(C3NC(=O)c4ccccc4N3)cc2c1 (stereo unspecified) the solubility kinetic was less than 0.2 µg/mL.
